Assay results from ChEMBL document CHEMBL1159290, “Longicin and goniothalamicinone: novel bioactive monotetrahydrofuran acetogenins from Asimina longifolia” (J Nat Prod, 1995).
Converted amounts (≈) assume the structure as drawn.

Key:
[1] = tested on: A549; test: Cytotoxicity against human A549 cells after 7 days by MTT assay; format: functional
[2] = tested on: MCF7; test: Cytotoxicity against human MCF7 cells after 7 days by MTT assay; format: functional; conditions: MCF7, 168 h, read-out: ED50 (the source's name)
[3] = tested on: MIA PaCa-2; test: Cytotoxicity against human MIAPaCa2 cells after 7 days by MTT assay; format: functional; conditions: for EC50: Homo sapiens, MIA PaCa-2, 168 h, read-out: ED50 (the source's name)
[4] = tested on: HT-29; test: Cytotoxicity against human HT-29 cells after 7 days by MTT assay; format: functional; conditions: for EC50: Homo sapiens, HT-29, 168 h, read-out: ED50 (the source's name)
[5] = tested on: A498; test: Cytotoxicity against human A498 cells after 7 days by MTT assay; format: functional; conditions: for EC50: Homo sapiens, A498, 168 h, read-out: ED50 (the source's name)
[6] = Toxicity to brine shrimp; format: organism-based; conditions: artemia, in vivo
[7] = tested on: PC-3; test: Cytotoxicity against human PC3 cells after 7 days by MTT assay; format: functional; conditions: PC-3, 168 h, read-out: ED50 (the source's name)

Row | Structure (SMILES) | EC50 ([1]; Homo sapiens, A549, 168 h, read-out: ED50 (the source's name)) | EC50 [2] | EC50 [3] | EC50 [4] | EC50 [5] | ED50 [1] | LC50 [6] | EC50 [7] | ED50 [3] | ED50 [4] | ED50 [5]
1 | COc1cccc2c1C(=O)c1c(O)c3c(c(O)c1C2=O)C[C@@](O)(C(=O)CO)C[C@@H]3O[C@H]1C[C@H](N)[C@H](O)[C@H](C)O1 [DOXORUBICIN] | 0.00341 mg/L (≈ 6.27 nM) | 0.329 mg/L (≈ 605 nM) | 0.00195 mg/L (≈ 3.59 nM) | 0.0116 mg/L (≈ 21.3 nM) | 0.00197 mg/L (≈ 3.62 nM) | – | – | – | – | – | –
2 | CCCCCCCCCCCCCC[C@H](O)[C@H]1CC[C@H]([C@H](O)CC[C@H](O)CCCCC[C@@H]2CC(CC(C)=O)C(=O)O2)O1 (mixture of isomers) | – | 0.186 mg/L | – | 0.235 mg/L | 0.172 mg/L | 1.23 ×10⁻⁴ ug/ml | 0.46 mg/L | 0.201 mg/L | 2.37 ×10⁻⁴ ug/ml | – | –
3 | CCCCCCCCCCCCCC[C@@H](O)[C@H]1CC[C@H]([C@H](O)CC[C@H](O)CCCCC[C@@H]2CC(CC(C)=O)C(=O)O2)O1 (mixture of isomers) | – | 0.967 mg/L | 0.00133 mg/L | – | 0.291 mg/L | 2.06 ×10⁻⁵ ug/ml | 0.14 mg/L | 0.137 mg/L | – | 4.05 ×10⁻⁴ ug/ml | –
4 | CCCCCCCCCCCCCC[C@H](O)[C@H]1CC[C@H]([C@H](O)CC[C@H](O)CCCCC[C@@H](O)CC2=C[C@H](C)OC2=O)O1 [LONGICIN] | – | > 1 mg/L | – | – | – | 1.77 ×10⁻⁶ ug/ml | 0.11 mg/L (≈ 184 nM) | 0.00426 mg/L (≈ 7.14 nM) | 1.25 ×10⁻⁹ ug/ml | 2.4 ×10⁻⁵ ug/ml | 1.99 ×10⁻⁴ ug/ml
